Data published in patent publication US6048854A, “2,3-diaminopropionic acid derivative” (Sumitomo Pharmaceuticals Company, Limited, priority 1993, dated 2000).
Where two headings read alike, the source gives them in different places.

Experiments:
human fibrinogen = molecular target: T1, human fibrinogen (Homo sapiens, UniProt P05106+P08514); assay: Binding assay of platelet to adhesive protein: fibrinogen (receptor binding inhibition); conditions: Table 4; fixed activated human platelets, 37° C., 60 minutes
T1 construct: centrifuged at 11000 rpm for two minutes to give human platelet; from tissue
Procedure: (§1) The blood was taken out from the elbow vein of a normal volunteer, and mixed with 1/10 volume of 3.8% sodium citrate. The blood was centrifuged at 1,000 rpm (150 g) for 10 minutes, and the supernatant is collected as a platelet rich plasma (PRP). The precipitates are centrifuged at 11,000 rpm (6000 g) for two minutes, and the supernatant is collected as a platelet poor plasma (PPP). To PRP is added prostaglandin I2 (PGl2) at a final concentration of 50 ng/ml, and the mixture was centrifuged at 11000 rpm for two minutes to give human platelet. The platelet was activated by washing with 3.8 mM HEPES-buffer (pH 7.4, Tyrode-HEPES buffer) containing 0.14 M sodium chloride, 2.7 mM potassium chloride, 3.7 mM sodium dihydrogen phosphate, 0.98 mM magnesium chloride, 1 mg/ml glucose, 50 ng/ml PGl2 and 0.35% bovine serum albumin (BSA), adding thereto 5 μM epinephrine, and 30 μM ADP (adenosine diphosphate), followed by being allowed to stand at room temperature for five minutes. To the activated platelet was added 0.05% p-formaldehyde, and the mixture was allowed to stand at room temperature for 30 minutes to give the fixed platelet, which was suspended in Tyrode-HEPES buffer to give a platelet suspension of a concentration of 2×10^8 ml^-1.
(§2) Human fibrinogen from which fibronectin was previously removed by passing through gelatin-cepharose, human fibronectin or human vitronectin was diluted with 0.1 M aqueous sodium hydrogen carbonate solution to a concentration of 5 μg/ml, and the protein solution is put into a 96-well microplate at a volume of 200 μl/well. The microplate was allowed to stand at 4° C. overnight. The plate was washed with phosphate buffered saline (PBS), and subjected to blocking with 3% BSA at 37° C. for one hour. To the plate were added a platelet suspension (final concentration, 10^8 ml^-1) and a test compound of various concentrations (total volume, 200 μl/well), and the plate was incubated at 37° C. for 60 minutes. The plate was treated with 1000-fold diluted enzyme (HRP)-labelled anti-mouse IgG polyclonal antibody at 37° C. for 60 minutes, and thereto was added HRP chromogenic substrate (0.1 M phosphate buffer containing 0.4 mg/ml O-phenylenediamine,0.01% hydrogen peroxide, 0.1 M citric acid, pH 5), and reacted at room temperature for 15 minutes. The reaction was terminated by adding thereto 4.5 M sulfuric acid at a volume of 25 μl/well, and the absorbance at 490 nm was measured.

platelet aggregation [1] = assay: Platelet aggregation inhibitory activity (ADP-induced, human platelet rich plasma); format: cell-based
Procedure: The blood was collected from the elbow vein of a normal volunteer with mixing thereof with 1/10 volume of 3.8% sodium citrate, and the blood was centrifuged at 1000 rpm (150 g) for 10 minutes to give the supernatant as platelet rich plasma (PRP). To PRP (200 μl) was added a test compound solution (2 μl), and the mixture was incubated with stirring at 1000 rpm at 37° C. for two minutes, and thereto was added a platelet aggregator, adenosine diphosphate (ADP, 22 μl) at a final concentration of 3 μg/ml. The platelet aggregation activity was determined by nephelometric analysis using a Hematracer (manufactured by Niko Bioscience, Ltd.). The test results of platelet aggregation inhibitory activity are expressed by IC50, which is a concentration of the test compound being required to inhibit the platelet aggregation reaction by 50%.
The compounds of Examples 18 to 70 were tested in the same manner as in Example 17.
The compounds of Examples 72 to 116 were tested in the same manner as in Example 17.

platelet aggregation [2] = assay: Platelet aggregation inhibitory activity (ex vivo) after oral administration; format: in vivo; conditions: Cavia porcellus, guinea pig, oral 0.1 mg/kg, ADP 10 μg/ml
Procedure: A canula for collecting blood was inserted into the left common carotid artery of a guinea pig which was anesthetized with pentobarbital (30 mg/kg, i.p.). The blood (1 ml) was taken with a syringe containing 1/10 volume of 3.8% sodium citrate (Kettin-citrate, manufactured by Kokusai Shiyaku Ltd.), and the platelet aggregation ability thereof was measured (as a value before administration). Then, a test compound was orally administered to the guinea pig at a dose of 0.1 mg/kg in a volume of 5 ml/kg, and the blood was collected periodically likewise at 0.5, 1, 2, 4 and 6 hours after the administration of the test compound, and the platelet aggregation ability thereof was measured.
The determination of the platelet aggregation ability was carried out by turbidimetry using a Hematracer (Niko Bioscience) as follows. That is, the blood was centrifuged at 4500 rpm at room temperature for 10 seconds, and the supernatant was considered as platelet rich plasma (PRP), and the precipitate was centrifuged at 11000 rpm for two minutes and its supernatant was considered as platelet poor plasma (PPP), and the photo-transmittance of the PRP and the PPP was adjusted to 0%, and 100%, respectively. A cubet containing PRP (200 μl) was inserted to a measurement well, and […] at 1000 rpm at 37° C. for two minutes, and thereto was added a platelet aggregator; ADP (adenosine diphosphate, Sigma Ltd., 20 μl, final concentration; 10 μg/ml), and the maximum aggregation rate was measured. From the maximum aggregation rate before the administration of the test compound (MAR control) and the maximum aggregation rate after the administration of the test compound (MAR sample), the platelet aggregation inhibitory rate of each test compound was estimated according to the following equation.
Inhibitory rate (%)=(1-(MAR sample/MAR control))×100
The periodical change in the platelet aggregation inhibitory rate of each test compound at a dose of 0.1 mg/kg of oral administration is shown in Table 5.

human fibronectin = assay: Binding assay of platelet to adhesive protein: fibronectin (receptor binding inhibition); conditions: Table 4; fixed activated human platelets, 37° C., 60 minutes
Procedure: as §1, §2

human vitronectin = assay: Binding assay of platelet to adhesive protein: vitronectin (receptor binding inhibition); conditions: Table 4; fixed activated human platelets, 37° C., 60 minutes; read-out: receptor binding inhibition (IC50), Bitronectin
Procedure: as §1, §2

[3] = 0.5 hr, read-out: platelet aggregation inhibitory rate (%), 0.5 hr
[4] = 1 hr, read-out: platelet aggregation inhibitory rate (%), 1 hr
[5] = 2 hrs, read-out: platelet aggregation inhibitory rate (%), 2 hrs
[6] = 4 hrs, read-out: platelet aggregation inhibitory rate (%), 4 hrs
[7] = 6 hrs, read-out: platelet aggregation inhibitory rate (%), 6 hrs
[8] = Homo sapiens, Table 2, same manner as Example 17
[9] = Homo sapiens, Table 3, same manner as Example 17

T1 sequence (P08514 32-887 limits assumed): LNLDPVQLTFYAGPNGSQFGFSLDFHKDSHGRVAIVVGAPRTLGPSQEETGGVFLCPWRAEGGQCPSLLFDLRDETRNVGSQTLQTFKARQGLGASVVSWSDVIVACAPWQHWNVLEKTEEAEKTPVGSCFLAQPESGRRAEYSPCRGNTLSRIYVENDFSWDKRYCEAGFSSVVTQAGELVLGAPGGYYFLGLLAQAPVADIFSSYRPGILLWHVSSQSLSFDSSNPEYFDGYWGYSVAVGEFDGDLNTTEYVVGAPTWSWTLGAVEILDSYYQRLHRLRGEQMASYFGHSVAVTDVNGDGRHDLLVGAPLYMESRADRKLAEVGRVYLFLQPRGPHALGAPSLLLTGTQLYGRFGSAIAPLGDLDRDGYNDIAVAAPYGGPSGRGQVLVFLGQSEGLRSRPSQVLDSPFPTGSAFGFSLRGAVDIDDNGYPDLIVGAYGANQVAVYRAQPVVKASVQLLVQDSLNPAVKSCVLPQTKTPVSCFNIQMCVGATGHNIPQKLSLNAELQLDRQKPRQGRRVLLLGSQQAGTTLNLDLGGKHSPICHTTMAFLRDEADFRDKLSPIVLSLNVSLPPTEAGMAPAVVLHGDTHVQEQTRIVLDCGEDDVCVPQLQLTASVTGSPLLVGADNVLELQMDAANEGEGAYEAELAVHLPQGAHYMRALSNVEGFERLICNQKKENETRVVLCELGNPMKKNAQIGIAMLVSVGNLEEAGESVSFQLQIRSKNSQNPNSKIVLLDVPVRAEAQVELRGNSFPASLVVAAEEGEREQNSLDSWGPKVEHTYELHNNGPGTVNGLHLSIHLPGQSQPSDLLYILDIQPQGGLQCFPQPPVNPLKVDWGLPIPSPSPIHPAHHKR
T1 sequence (P08514 891-1039 limits assumed): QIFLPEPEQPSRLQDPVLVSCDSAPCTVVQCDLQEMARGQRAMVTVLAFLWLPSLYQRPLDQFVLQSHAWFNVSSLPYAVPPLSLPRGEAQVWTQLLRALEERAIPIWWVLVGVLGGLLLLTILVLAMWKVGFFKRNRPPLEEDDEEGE
T1 sequence (P05106 27-788): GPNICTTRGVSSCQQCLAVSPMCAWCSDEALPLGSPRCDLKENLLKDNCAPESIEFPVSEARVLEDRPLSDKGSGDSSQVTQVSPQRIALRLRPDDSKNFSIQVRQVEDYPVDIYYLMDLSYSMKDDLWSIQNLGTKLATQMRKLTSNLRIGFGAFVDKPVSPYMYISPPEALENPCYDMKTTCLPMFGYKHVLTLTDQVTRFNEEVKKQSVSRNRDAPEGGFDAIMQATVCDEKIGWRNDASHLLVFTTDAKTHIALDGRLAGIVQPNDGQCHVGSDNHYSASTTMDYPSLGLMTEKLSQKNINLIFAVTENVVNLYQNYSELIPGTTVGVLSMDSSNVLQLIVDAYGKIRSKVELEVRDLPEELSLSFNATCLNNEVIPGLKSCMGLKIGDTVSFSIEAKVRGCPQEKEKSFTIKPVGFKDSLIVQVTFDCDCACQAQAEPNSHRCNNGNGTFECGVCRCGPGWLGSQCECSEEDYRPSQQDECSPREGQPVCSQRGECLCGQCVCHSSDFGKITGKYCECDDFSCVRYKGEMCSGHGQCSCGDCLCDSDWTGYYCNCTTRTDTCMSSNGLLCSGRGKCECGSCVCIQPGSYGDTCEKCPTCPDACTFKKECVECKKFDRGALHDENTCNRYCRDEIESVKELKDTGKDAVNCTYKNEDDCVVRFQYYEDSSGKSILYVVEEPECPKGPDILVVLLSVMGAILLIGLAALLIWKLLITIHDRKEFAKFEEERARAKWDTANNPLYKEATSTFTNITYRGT

N=C(N)c1ccc(C(=O)NCCC(=O)NC[C@H](NS(=O)(=O)c2ccccc2)C(=O)O)cc1 [Example 1, (2S)-3-(3-(4-amidinobenzoylamino)propanoylamino)-2-benzenesulfonylaminopropanoic Acid]
IC50 (human fibrinogen): 4.6 nM
IC50 (platelet aggregation [1]; Table 1, human PRP, ADP 3 μg/ml, 37° C.): 16 nM
inhibition in vivo at 0.1 mg/kg (platelet aggregation [2]; [3]): 100%
inhibition in vivo at 0.1 mg/kg (platelet aggregation [2]; [4]): 100%
inhibition in vivo at 0.1 mg/kg (platelet aggregation [2]; [5]): 100%
inhibition in vivo at 0.1 mg/kg (platelet aggregation [2]; [6]): 100%
inhibition in vivo at 0.1 mg/kg (platelet aggregation [2]; [7]): 100%
IC50 (human fibronectin): 200 nM
IC50 (human vitronectin): 1000 nM

COc1ccc(S(=O)(=O)N[C@@H](CNC(=O)CCCOc2ccc(C(=N)N)cc2)C(=O)O)cc1 [Example 57, (2S)-3-(4-(4-amidinophenoxy)butanoylamino)-2-(4-methoxy)benzenesulfonylaminopropanoic Acid]
IC50 (human fibrinogen): 7.1 nM
IC50 (platelet aggregation [1]; [8]): 18 nM
IC50 (human fibronectin): 1200 nM
IC50 (human vitronectin): 7500 nM

N=C(N)c1ccc(OCCCC(=O)NC[C@H](NS(=O)(=O)c2ccccc2)C(=O)O)cc1 [Example 58, (2S)-3-(4-(4-amidinophenoxy)butanoylamino)-2-benzenesulfonylaminopropanoicAcid]
IC50 (human fibrinogen): 24 nM
IC50 (platelet aggregation [1]; [8]): 96 nM
IC50 (human fibronectin): 610 nM
IC50 (human vitronectin): 8000 nM

N=C(N)c1ccc(OCCCC(=O)NC[C@H](NS(=O)(=O)c2ccccc2[N+](=O)[O-])C(=O)O)cc1 [Example 59]
IC50 (human fibrinogen): 12 nM
IC50 (platelet aggregation [1]; [8]): 34 nM
IC50 (human fibronectin): 610 nM
IC50 (human vitronectin): 3300 nM

Cc1cc(C)c(S(=O)(=O)N[C@@H](CNC(=O)CCCOc2ccc(C(=N)N)cc2)C(=O)O)c(C)c1 [Example 60, (2S)-3-(4-(4-amidinophenoxy)butanoylamino)-2-(2,4,6-trimethyl)benzenesulfonylaminopropanic Acid]
IC50 (human fibrinogen): 1.5 nM
IC50 (platelet aggregation [1]; [8]): 31 nM
IC50 (human fibronectin): 94 nM
IC50 (human vitronectin): 1100 nM

N=C(N)c1ccc(CCCCC(=O)NC[C@H](NS(=O)(=O)c2ccccc2)C(=O)O)cc1 [Example 67]
IC50 (platelet aggregation [1]; [8]): 32 nM
inhibition in vivo at 0.1 mg/kg (platelet aggregation [2]; [3]): 88%
inhibition in vivo at 0.1 mg/kg (platelet aggregation [2]; [4]): 71%
inhibition in vivo at 0.1 mg/kg (platelet aggregation [2]; [5]): 69%
inhibition in vivo at 0.1 mg/kg (platelet aggregation [2]; [6]): 31%
inhibition in vivo at 0.1 mg/kg (platelet aggregation [2]; [7]): 10%

COc1ccc(S(=O)(=O)N[C@@H](CNC(=O)Cc2ccc(-c3ccc(C(=N)N)cc3)cc2)C(=O)O)cc1 [Example 68, (2S)-3-(2-(4'-amidino-4-biphenylyl)ethanoylamino)-2-(4-methoxy)benzenesulfonylaminopropanoic Acid]
IC50 (human fibrinogen): 12 nM
IC50 (platelet aggregation [1]; [8]): 43 nM
IC50 (human fibronectin): 99 nM
IC50 (human vitronectin): 2700 nM

N=C(N)c1ccc(C(=O)N2CCCC(C(=O)NC[C@H](NS(=O)(=O)c3ccccc3)C(=O)O)C2)cc1 (stereo partly drawn) [Example 95, (2S)-3-((1-(4-amidinobenzoyl)-3-piperidyl)carbonylamino)-2-benzenesulfonylaminopropanoic Acid]
IC50 (human fibrinogen): 8.4 nM
inhibition in vivo at 0.1 mg/kg (platelet aggregation [2]; [3]): 49%
inhibition in vivo at 0.1 mg/kg (platelet aggregation [2]; [4]): 49%
inhibition in vivo at 0.1 mg/kg (platelet aggregation [2]; [5]): 31%
inhibition in vivo at 0.1 mg/kg (platelet aggregation [2]; [6]): 12%
inhibition in vivo at 0.1 mg/kg (platelet aggregation [2]; [7]): 18%
IC50 (human fibronectin): 33 nM
IC50 (human vitronectin): 630 nM

CNC(=N)c1ccc(C(=O)NCCC(=O)NC[C@H](NS(=O)(=O)c2ccccc2)C(=O)O)cc1 [Example 98, (2S)-2-benzenesulfonylamino-3-(3-(4-(N-methylamidino)benzoylamino)propanoylamino)propanoic Acid]
IC50 (platelet aggregation [1]; [9]): 57 nM
inhibition in vivo at 0.1 mg/kg (platelet aggregation [2]; [3]): 94%
inhibition in vivo at 0.1 mg/kg (platelet aggregation [2]; [4]): 100%
inhibition in vivo at 0.1 mg/kg (platelet aggregation [2]; [5]): 100%
inhibition in vivo at 0.1 mg/kg (platelet aggregation [2]; [6]): 100%
inhibition in vivo at 0.1 mg/kg (platelet aggregation [2]; [7]): 100%

CCNC(=N)c1ccc(C(=O)NCCC(=O)NC[C@H](NS(=O)(=O)c2ccccc2)C(=O)O)cc1 [Example 99, (2S)-2-benzenesulfonylamino-3-(3-(4-(N-ethylamidino)benzoylamino)propanoylamino)propanoic Acid]
IC50 (platelet aggregation [1]; [9]): 17 nM
inhibition in vivo at 0.1 mg/kg (platelet aggregation [2]; [3]): 100%
inhibition in vivo at 0.1 mg/kg (platelet aggregation [2]; [4]): 100%
inhibition in vivo at 0.1 mg/kg (platelet aggregation [2]; [5]): 100%
inhibition in vivo at 0.1 mg/kg (platelet aggregation [2]; [6]): 100%
inhibition in vivo at 0.1 mg/kg (platelet aggregation [2]; [7]): 100%

CN(C)C(=N)c1ccc(C(=O)NCCC(=O)NC[C@H](NS(=O)(=O)c2ccccc2)C(=O)O)cc1 [Example 100, (2S)-2-benzenesulfonylamino-3-(3-(4-(N,N-dimethylamidino)benzoylamino)propanoylamino)propanoic Acid]
IC50 (platelet aggregation [1]; [9]): 28 nM
inhibition in vivo at 0.1 mg/kg (platelet aggregation [2]; [3]): 100%
inhibition in vivo at 0.1 mg/kg (platelet aggregation [2]; [4]): 100%
inhibition in vivo at 0.1 mg/kg (platelet aggregation [2]; [5]): 100%
inhibition in vivo at 0.1 mg/kg (platelet aggregation [2]; [6]): 100%
inhibition in vivo at 0.1 mg/kg (platelet aggregation [2]; [7]): 100%

N=C1NCCc2cc(OCCCC(=O)NC[C@H](NS(=O)(=O)c3ccccc3)C(=O)O)ccc21 [Example 111, (2S)-2-benzenesulfonylamino-3-(4-(6-(1-imino-1,2,3,4-tetrahydroisoquinolyl)oxy)butanoylamino)propanoic Acid]
IC50 (platelet aggregation [1]; [9]): 41 nM

CC(C)(C)C(=O)OCOC(=O)[C@H](CNC(=O)CCCOc1ccc(C(=N)N)cc1)NS(=O)(=O)c1ccccc1 [Example 113, (2S)-3-(4-(4-amidinophenoxy)butanoylamino)-2-benzenesulfonylaminopropanoicAcid Pivaloyloxymethyl Ester]
IC50 (platelet aggregation [1]; [9]): 48 nM

NC(=O)c1ccc(C(=O)NCCC(=O)NC[C@H](NS(=O)(=O)c2ccccc2N)C(=O)O)cc1 [Example 114, (2S)-2-(2-amino)benzenesulfonylamino-3-(3-(4-carbamoylbenzoylamino)propanoylamino)propanoic Acid]
IC50 (platelet aggregation [1]; [9]): 35 nM

CCc1ccc(S(=O)(=O)N[C@@H](CNC(=O)CCNC(=O)c2ccc(C(=N)N)cc2)C(=O)OCOC(=O)C(C)(C)C)cc1 [Example 116, (2S)-3-(3-(4-amidinobenzoylamino)propanoylamino)-2-(4-ethyl)benzenesulfonylaminopropanoic Acid Pivaloyloxymethyl Ester]
IC50 (platelet aggregation [1]; [9]): 103 nM
